Tests used:
[1] = tested on: HBV; assay: Anti-viral assay in HepG2.2.15 cells: HBV inhibitory activity (HBV DNA in culture medium by q-PCR); type: cell-based; settings: Hepatitis B virus, HepG2.2.15, 144 h, HepG2.2.15 cells, 6 days treatment, HBV DNA in culture medium by q-PCR, highest concentration 10 uM; read-out: EC50
Description: (§1) Example 2: Anti-Viral Assay in HepG2.2.15 Cells
(§2) 1.1. Cell Line • HepG2.2.15 (the HepG2.2.15 cell line can be produced by transfection of the HepG2 cell line as described in Sells, Chen, and Acs 1987 (Proc. Natl. Acad. Sci. USA 84:1005-1009), and the HepG2 cell line is available from ATCC® under number HB-8065™). Reagents • DMEM/F12 (INVITROGEN-11330032) • FBS (GIBCO-10099-141) • Dimethyl sulfoxide(DMSO) (SIGMA-D2650) • Penicillin-streptomycin solution (HYCLONE-SV30010) • NEAA (INVITROGEN-1114050) • L-Glutamine (INVITROGEN-25030081) • Geneticin Selective Antibiotic (G418, 500 mg/ml) (INVITROGEN-10131027) • Trypsinase digestion solution (INVITROGEN-25300062) • CCK8 (BIOLOTE-35004) • QIAamp 96 DNA Blood Kit (12) (QIAGEN-51162) • FastStart Universal Probe Mast Mix (ROCHE-04914058001)
(§3) 2.1. HBV Inhibitory Activity and Cytotoxicity Determination
(§4) Seed the cell HepG2.2.15 cells into 96-well plate in 2% FBS culture medium at the density of 40,000 cells/well and 5,000 cells/well for HBV inhibitory activity and cytotoxicity determination, respectively. After seeding, incubate the cell plates at 37° C., 5% CO2 overnight. The next day, medium containing compounds is added to the cell to treat the cells for 6 days with medium refreshed once in the middle of the treatment. 8 dose points with 3 folds dilution of each compound were adopted and the highest concentration of the compounds is 10 uM and 100 uM for HBV inhibitory activity and cytotoxicity determination, respectively.
The HBV DAN change in the cell culture medium induced by the compounds is measured by q-PCR method. Briefly, the HBV DNA in the culture medium is extracted using QIAamp 96 DNA Blood Kit according to the manual and then quantified by q-PCR using the primers and probe in the table below.
(§5) EC50 and CC50 values are calculated by the GRAPHPAD PRISM software.

[2] = Cytotoxicity determination in HepG2.2.15 cells (CCK-8); type: cell-based; settings: human, 6 days treatment, CCK-8, highest concentration 100 uM
Description: as §1, §2, §3, §4
After 6 days of compounds treatment, add 20 μl CCK-8 reagents to each well of cytotoxicity assay plates, incubate the plate at 37° C., 5% CO2 for 2.5 h and measure the absorbance at 450 nm wavelength, at the same time read the absorbance at 630 nm wavelength as reference.
as §5

CCOC(=O)C1=C([C@H]2CC[C@H](Cc3nc(C(=O)O)co3)CC2)NC(c2nccs2)=NC1c1ccc(F)c(F)c1Cl (single isomer, unassigned) [Compound I-15-A, (trans)-2-((4-(6-(2-chloro-3,4-difluorophenyl)-5-(ethoxycarbonyl)-2-(thiazol-2-yl)-3,6-dihydropyrimidin-4-yl)cyclohexyl)methyl)oxazole-4-carboxylic Acid]
EC50 [1]: 66 nM
CC50 at 6 days [2]: 6270 nM

COC(=O)C1=C([C@H]2CC[C@H](c3nc(CC(=O)O)co3)CC2)NC(c2nccs2)=NC1c1ccc(F)c(F)c1Cl (single isomer, unassigned) [Compound I-16-B, (trans)-2-(2-(4-(6-(2-Chloro-3,4-difluorophenyl)-5-(methoxycarbonyl)-2-(thiazol-2-yl)-3,6-dihydropyrimidin-4-yl)cyclohexyl)oxazol-4-yl)acetic Acid]
EC50 [1]: 4.8 nM
CC50 at 6 days [2]: 12400 nM

COC(=O)C1=C([C@H]2CC[C@H](c3nc(CC(=O)O)co3)CC2)NC(c2nccs2)=NC1c1ccc(F)cc1Cl (single isomer, unassigned) [Compound I-17-A, (trans)-2-(2-(4-(6-(2-Chloro-4-fluorophenyl)-5-(methoxycarbonyl)-2-(thiazol-2-yl)-3,6-dihydropyrimidin-4-yl)cyclohexyl)oxazol-4-yl)acetic Acid]
EC50 [1]: 14 nM
CC50 at 6 days [2]: 25700 nM

COC(=O)C1=C([C@H]2CC[C@H](c3nc(CC(=O)O)co3)CC2)NC(c2nccs2)=NC1c1ccc(F)cc1Br (single isomer, unassigned) [Compound I-18-A, (trans)-2-(2-(4-(6-(2-Bromo-4-fluorophenyl)-5-(methoxycarbonyl)-2-(thiazol-2-yl)-3,6-dihydropyrimidin-4-yl)cyclohexyl)oxazol-4-yl)acetic Acid]
EC50 [1]: 7 nM
CC50 at 6 days [2]: 15300 nM

COC(=O)C1=C([C@H]2CC[C@H](c3nc(CC(=O)O)co3)CC2)NC(c2nccs2)=NC1c1cccc(F)c1Br (single isomer, unassigned) [Compound I-19-B]
EC50 [1]: 36 nM
CC50 at 6 days [2]: 15200 nM

COC(=O)C1=C([C@H]2CC[C@H](c3nc(CC(=O)O)co3)CC2)NC(c2nccs2)=NC1c1cccc(F)c1Cl (single isomer, unassigned) [Compound I-20-B, (trans)-2-(2-(4-(6-(2-Chloro-3-fluorophenyl)-5-(methoxycarbonyl)-2-(thiazol-2-yl)-3,6-dihydropyrimidin-4-yl)cyclohexyl)oxazol-4-yl)acetic Acid]
EC50 [1]: 30 nM
CC50 at 6 days [2]: 7210 nM

COC(=O)C1=C([C@H]2CC[C@H](c3nc(CC(=O)O)co3)CC2)NC(c2nccs2)=NC1c1cccc(F)c1C (single isomer, unassigned) [Compound I-21-B, (trans)-2-(2-(4-(6-(3-Fluoro-2-methylphenyl)-5-(methoxycarbonyl)-2-(thiazol-2-yl)-3,6-dihydropyrimidin-4-yl)cyclohexyl)oxazol-4-yl)acetic Acid]
EC50 [1]: 57 nM
CC50 at 6 days [2]: 8040 nM

COC(=O)C1=C([C@H]2CC[C@H](c3nc(CC(=O)O)c(C)o3)CC2)NC(c2nccs2)=NC1c1ccc(F)c(F)c1Cl (single isomer, unassigned) [Compound I-22-B, (trans)-2-(2-(4-(6-(2-Chloro-3,4-difluorophenyl)-5-(methoxycarbonyl)-2-(thiazol-2-yl)-3,6-dihydropyrimidin-4-yl)cyclohexyl)-5-methyloxazol-4-yl)acetic Acid]
EC50 [1]: 15 nM
CC50 at 6 days [2]: 7680 nM

CCOC(=O)C1=C([C@H]2CC[C@H](c3nc(CC(=O)O)co3)CC2)NC(c2nccs2)=NC1c1ccc(F)c(F)c1Cl (single isomer, unassigned) [Compound I-23-B, (trans)-2-(2-(4-(6-(2-Chloro-3,4-difluorophenyl)-5-(ethoxycarbonyl)-2-(thiazol-2-yl)-3,6-dihydropyrimidin-4-yl)cyclohexyl)oxazol-4-yl)acetic Acid]
EC50 [1]: 13 nM
CC50 at 6 days [2]: 5480 nM

CCOC(=O)C1=C([C@H]2CC[C@H](c3nc(CCC(=O)O)co3)CC2)NC(c2nccs2)=NC1c1ccc(F)c(F)c1Cl (single isomer, unassigned) [Compound I-24-A, (trans)-3-(2-(4-(6-(2-Chloro-3,4-difluorophenyl)-5-(ethoxycarbonyl)-2-(thiazol-2-yl)-3,6-dihydropyrimidin-4-yl)cyclohexyl)oxazol-4-yl)propanoic Acid]
EC50 [1]: < 4.6 nM
CC50 at 6 days [2]: 6790 nM

COC(=O)C1=C([C@H]2CC[C@H](c3nc(CC(C)(C)C(=O)O)co3)CC2)NC(c2nccs2)=NC1c1ccc(F)c(F)c1Cl (single isomer, unassigned) [Compound I-25-B, (trans)-3-(2-(4-(6-(2-Chloro-3,4-difluorophenyl)-5-(methoxycarbonyl)-2-(thiazol-2-yl)-3,6-dihydropyrimidin-4-yl)cyclohexyl)oxazol-4-yl)-2,2-dimethylpropanoic acid]
EC50 [1]: 6.1 nM
CC50 at 6 days [2]: 7900 nM

CCOC(=O)C1=C([C@H]2CC[C@H](c3ncc(C(=O)O)o3)CC2)NC(c2nccs2)=NC1c1ccc(F)c(F)c1Cl (single isomer, unassigned) [Compound I-26-B, (trans)-2-(4-(6-(2-chloro-3,4-difluorophenyl)-5-(ethoxycarbonyl)-2-(thiazol-2-yl)-3,6-dihydropyrimidin-4-yl)cyclohexyl)oxazole-5-carboxylic Acid]
EC50 [1]: 55 nM
CC50 at 6 days [2]: 15500 nM

CCOC(=O)C1=C([C@H]2CC[C@H](c3nc(C(C)(C)C(=O)O)co3)CC2)NC(c2nccs2)=NC1c1ccc(F)c(F)c1Cl (single isomer, unassigned) [Compound I-27-B, (trans)-2-(2-(4-(6-(2-chloro-3,4-difluorophenyl)-5-(ethoxycarbonyl)-2-(thiazol-2-yl)-3,6-dihydropyrimidin-4-yl)cyclohexyl)oxazol-4-yl)-2-methylpropanoic Acid]
EC50 [1]: 18 nM
CC50 at 6 days [2]: 5170 nM

CCOC(=O)C1=C([C@H]2CC[C@H](c3cnn(CC(=O)O)c3)CC2)NC(c2nccs2)=NC1c1ccc(F)c(F)c1Cl (single isomer, unassigned) [Compound I-28-B, (trans)-2-(4-(4-(6-(2-chloro-3,4-difluorophenyl)-5-(ethoxycarbonyl)-2-(thiazol-2-yl)-3,6-dihydropyrimidin-4-yl)cyclohexyl)-1H-pyrazol-1-yl)acetic Acid]
EC50 [1]: 33 nM
CC50 at 6 days [2]: 5280 nM

COC(=O)C1=C([C@H]2CC[C@H](c3cnn(CCC(=O)O)c3)CC2)NC(c2nccs2)=NC1c1ccc(F)cc1Cl (single isomer, unassigned) [Compound I-29-C, (trans)-3-(4-(4-(6-(2-Chloro-4-fluorophenyl)-5-(methoxycarbonyl)-2-(thiazol-2-yl)-3,6-dihydropyrimidin-4-yl)cyclohexyl)-1H-pyrazol-1-yl)propanoic Acid]
EC50 [1]: 10 nM
CC50 at 6 days [2]: 11200 nM

CCOC(=O)C1=C([C@H]2CC[C@H](c3cnn(C(C)(C)CC(=O)O)c3)CC2)NC(c2nccs2)=NC1c1ccc(F)c(F)c1Cl (single isomer, unassigned) [Compound I-30-D]
EC50 [1]: 26 nM
CC50 at 6 days [2]: 1160 nM

CCOC(=O)C1=C([C@H]2CC[C@H](c3cnn(CCC(=O)O)c3)CC2)NC(c2nccs2)=NC1c1ccc(F)c(F)c1Cl (single isomer, unassigned) [Compound I-32-B, 3-(4-((trans)-4-(6-(2-Chloro-3,4-difluorophenyl)-5-(ethoxycarbonyl)-2-(thiazol-2-yl)-3,6-dihydropyrimidin-4-yl)cyclohexyl)-1H-pyrazol-1-yl)propanoic Acid]
EC50 [1]: < 4.6 nM
CC50 at 6 days [2]: 5810 nM

CCOC(=O)C1=C([C@H]2CC[C@H](c3cn(CCC(=O)O)nc3C)CC2)NC(c2nccs2)=NC1c1ccc(F)c(F)c1Cl (single isomer, unassigned) [Compound I-33-C, (trans)-3-(4-(4-(6-(2-Chloro-3,4-difluorophenyl)-5-(ethoxycarbonyl)-2-(thiazol-2-yl)-3,6-dihydropyrimidin-4-yl)cyclohexyl)-3-methyl-1H-pyrazol-1-yl)propanoic Acid]
EC50 [1]: 7.2 nM
CC50 at 6 days [2]: 2970 nM
